Data: US20230113817A1, “DILEUCINE COMPOSITIONS AND METHODS OF USE THEREOF FOR FAT LOSS” (Ingenious Ingredients, LP, priority 2021, published 2023)

Columns and labels:
[1] = test system: body fat of overweight subjects; test: Resistance exercise training study, body composition and body fat; type: in vivo, human; conditions: 2 g per day, n=7 per treatment group, beginning vs conclusion of study (FIG. 2)
Text: A randomized, double-blind, cross over design, resistance exercise training study was preformed to assess the impact of administration of the instantly disclosed compositions on subject body composition and body fat. Subjects were “overweight”, BMI of 26.8 in the leucine group, 25.0 in the dileucine group. Treatment groups received either leucine (2 g per day), dileucine (2 g per day), or placebo (n=7, per treatment group). Body measurements were taken at the beginning and conclusion of the study.

[2] = test system: body weight of male Swiss albino mice; test: Weight management study in treadmill-trained mice; type: in vivo; conditions: daily treatment for 28 days
Method: Animal studies were conducted to investigate the effects of test substances (treatment) on weight management in male Swiss albino mice. Animals were divided into 17 groups with each group consisting of 8 animals. The test groups were treated with the test substances daily for 28 days. All the animals were subjected to treadmill training for 5 days a week for 28 days. Measurements were taken on day 0 and 28th day.

Structure (SMILES)	body fat following resistance training [1]	Weight in grams ([2]; treadmill training 5 days a week, dileucine 411 mg/kg, partner doses per Table 1) [grams]	Percent Difference from Placebo ([2]; weight vs control group, treadmill training, doses per Table 1) [%]
CC(C)C[C@H](NC(=O)[C@@H](N)CC(C)C)C(=O)O [Dileucine, L-Leucyl-L-leucine]	decreased body fat	33.23	−2.69
CC(C)C[C@H](N)C(=O)O [leucine]	modest increases in body fat	–	–
